Read-outs that look alike come from different tables or passages of the source.
Columns and labels:
[1] = molecular target: T1, AEA-DA lipid probe targets in Neuro2a cells (Mus musculus, UniProt P01897)
T1 sequence (P01897 25-362): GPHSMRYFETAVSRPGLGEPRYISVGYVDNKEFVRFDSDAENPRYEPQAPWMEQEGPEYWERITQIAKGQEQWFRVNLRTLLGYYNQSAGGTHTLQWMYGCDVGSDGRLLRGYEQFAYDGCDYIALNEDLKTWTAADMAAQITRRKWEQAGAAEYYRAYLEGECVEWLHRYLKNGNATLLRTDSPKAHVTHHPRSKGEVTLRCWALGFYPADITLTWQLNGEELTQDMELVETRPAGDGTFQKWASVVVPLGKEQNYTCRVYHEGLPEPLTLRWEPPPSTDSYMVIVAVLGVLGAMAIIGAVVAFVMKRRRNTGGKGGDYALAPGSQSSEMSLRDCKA

[2] = molecular target: AEA-DA lipid probe targets in Neuro2a cells (Mus musculus, UniProt P18242)
[3] = molecular target: T2, AEA-DA lipid probe targets in Neuro2a cells (Mus musculus, UniProt P55096)
T2 sequence (P55096 1-659): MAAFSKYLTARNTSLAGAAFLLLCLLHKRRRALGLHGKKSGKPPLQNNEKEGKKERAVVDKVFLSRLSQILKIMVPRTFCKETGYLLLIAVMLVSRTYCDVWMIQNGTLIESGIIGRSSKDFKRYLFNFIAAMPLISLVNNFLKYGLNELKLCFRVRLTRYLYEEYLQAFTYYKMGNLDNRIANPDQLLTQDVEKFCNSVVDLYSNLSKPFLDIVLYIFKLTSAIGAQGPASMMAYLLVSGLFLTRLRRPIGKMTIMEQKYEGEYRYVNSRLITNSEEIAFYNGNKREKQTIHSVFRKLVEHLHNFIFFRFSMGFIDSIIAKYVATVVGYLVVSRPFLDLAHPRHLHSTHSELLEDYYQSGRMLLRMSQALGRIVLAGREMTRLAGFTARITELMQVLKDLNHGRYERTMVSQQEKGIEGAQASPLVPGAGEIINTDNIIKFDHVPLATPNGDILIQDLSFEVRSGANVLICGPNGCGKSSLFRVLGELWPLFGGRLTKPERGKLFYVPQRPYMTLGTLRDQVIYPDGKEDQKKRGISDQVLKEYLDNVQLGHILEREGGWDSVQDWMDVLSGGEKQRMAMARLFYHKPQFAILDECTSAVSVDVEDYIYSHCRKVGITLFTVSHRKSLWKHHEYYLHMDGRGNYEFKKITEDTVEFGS

[4] = molecular target: AEA-DA lipid probe targets in Neuro2a cells (Mus musculus, UniProt Q8VIK2)
[5] = molecular target: T3, AEA-DA lipid probe targets in Neuro2a cells (Mus musculus, UniProt Q9JMF7)
T3 sequence (Q9JMF7 1-238): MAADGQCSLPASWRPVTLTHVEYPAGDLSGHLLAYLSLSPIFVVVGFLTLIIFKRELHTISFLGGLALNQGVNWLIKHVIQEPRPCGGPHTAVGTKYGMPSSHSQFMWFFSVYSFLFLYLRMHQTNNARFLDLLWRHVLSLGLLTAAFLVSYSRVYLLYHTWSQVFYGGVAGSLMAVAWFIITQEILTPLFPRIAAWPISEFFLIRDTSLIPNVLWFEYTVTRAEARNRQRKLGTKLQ

[6] = molecular target: T4, AEA-DA lipid probe targets in Neuro2a cells (Mus musculus, UniProt Q9QY93)
T4 sequence (Q9QY93 1-170): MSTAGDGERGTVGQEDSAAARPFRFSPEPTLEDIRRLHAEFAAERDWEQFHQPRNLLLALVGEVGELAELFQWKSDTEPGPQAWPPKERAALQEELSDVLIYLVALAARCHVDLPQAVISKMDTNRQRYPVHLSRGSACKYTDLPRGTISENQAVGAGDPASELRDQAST

[7] = molecular target: T5, AEA-DA lipid probe targets in Neuro2a cells (Mus musculus, UniProt Q9QZD8)
T5 sequence (Q9QZD8 1-287): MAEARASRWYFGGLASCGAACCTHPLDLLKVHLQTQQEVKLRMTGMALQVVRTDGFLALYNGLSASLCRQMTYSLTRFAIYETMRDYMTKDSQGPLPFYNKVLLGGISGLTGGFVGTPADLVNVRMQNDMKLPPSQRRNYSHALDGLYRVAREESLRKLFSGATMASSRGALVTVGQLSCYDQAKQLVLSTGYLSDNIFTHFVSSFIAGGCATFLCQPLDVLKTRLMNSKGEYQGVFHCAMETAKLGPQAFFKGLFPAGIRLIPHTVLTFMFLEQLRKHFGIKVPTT

[8] = molecular target: T6, AEA-DA lipid probe targets in Neuro2a cells (Mus musculus, UniProt Q61263)
T6 sequence (Q61263 1-540): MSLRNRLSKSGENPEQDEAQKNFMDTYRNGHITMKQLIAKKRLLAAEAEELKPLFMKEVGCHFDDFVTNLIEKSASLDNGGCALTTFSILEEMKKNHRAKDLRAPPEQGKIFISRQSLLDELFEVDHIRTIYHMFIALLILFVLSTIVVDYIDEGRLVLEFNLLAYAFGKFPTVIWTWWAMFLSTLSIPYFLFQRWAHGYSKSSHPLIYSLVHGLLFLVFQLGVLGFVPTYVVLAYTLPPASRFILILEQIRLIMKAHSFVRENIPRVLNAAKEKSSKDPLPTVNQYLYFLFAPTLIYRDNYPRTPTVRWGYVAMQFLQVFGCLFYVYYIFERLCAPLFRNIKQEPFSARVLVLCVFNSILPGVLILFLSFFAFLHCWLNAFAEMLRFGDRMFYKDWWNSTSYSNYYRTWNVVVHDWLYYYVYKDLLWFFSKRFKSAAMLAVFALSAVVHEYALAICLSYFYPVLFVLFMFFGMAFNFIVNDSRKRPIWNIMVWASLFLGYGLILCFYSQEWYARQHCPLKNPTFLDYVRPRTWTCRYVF

[9] = molecular target: T7, AEA-DA lipid probe targets in Neuro2a cells (Mus musculus, UniProt Q9D938)
T7 sequence (Q9D938 97-188): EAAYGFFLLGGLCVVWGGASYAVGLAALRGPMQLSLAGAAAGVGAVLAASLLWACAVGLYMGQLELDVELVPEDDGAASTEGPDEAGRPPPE

Sequence of AEA-DA lipid probe targets in Neuro2a cells (Mus musculus, UniProt Q8VIK2) (Q8VIK2 whole entry): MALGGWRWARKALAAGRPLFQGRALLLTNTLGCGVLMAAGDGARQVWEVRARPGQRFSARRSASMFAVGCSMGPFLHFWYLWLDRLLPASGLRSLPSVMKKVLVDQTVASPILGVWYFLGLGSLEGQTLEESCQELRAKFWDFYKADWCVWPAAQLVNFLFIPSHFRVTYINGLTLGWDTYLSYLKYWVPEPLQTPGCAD
Sequence of AEA-DA lipid probe targets in Neuro2a cells (Mus musculus, UniProt P18242) (P18242 65-410): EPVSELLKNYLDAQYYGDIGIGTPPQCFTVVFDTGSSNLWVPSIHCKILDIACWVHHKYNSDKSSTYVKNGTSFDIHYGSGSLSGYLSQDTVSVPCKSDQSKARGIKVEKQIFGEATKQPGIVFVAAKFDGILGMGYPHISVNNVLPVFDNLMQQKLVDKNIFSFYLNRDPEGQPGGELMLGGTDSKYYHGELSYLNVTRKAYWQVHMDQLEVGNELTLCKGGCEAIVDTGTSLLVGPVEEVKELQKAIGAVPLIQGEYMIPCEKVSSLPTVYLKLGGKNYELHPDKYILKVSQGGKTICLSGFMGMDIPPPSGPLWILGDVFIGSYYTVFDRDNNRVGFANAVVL

## CCCCC/C=C\C/C=C\C/C=C\C/C=C\CCCC(=O)NCCO [AEA, anandamide, reference compound]
[1]; competitor 200 μM
  SILAC ratio H2-L: 1.3
[2]; competitor 200 μM
  SILAC ratio, Ctsd: 1.2
[3]; competitor 200 μM
  SILAC ratio Abcd3: 1.5
[4]; competitor 200 μM
  SILAC ratio Mpv17l2: 1.3
[5]; competitor 200 μM
  SILAC ratio, Dolpp1: 2.2
[6]; competitor 200 μM
  SILAC ratio Dctpp1: 1.5
[7]; competitor 200 μM
  SILAC ratio Slc25a10: 1.2

## O=C(/C=C/c1cccnc1)NCCCCC1CCN(C(=O)c2ccccc2)CC1 [FK-866, reference compound]
[1]; competitor 25 μM
  SILAC ratio H2-L: 1.0
[2]; competitor 25 μM
  SILAC ratio, Ctsd: 1.0
[3]; competitor 25 μM
  SILAC ratio Abcd3: 1.3
[8]; competitor 25 μM
  SILAC ratio, Soat1: 2.3
[4]; competitor 25 μM
  SILAC ratio Mpv17l2: 1.4
[9]; competitor 25 μM
  SILAC ratio, Tmem160: 1.2
[5]; competitor 25 μM
  SILAC ratio, Dolpp1: 1.2
[6]; competitor 25 μM
  SILAC ratio Dctpp1: 1.4
[7]; competitor 25 μM
  SILAC ratio Slc25a10: 1.2

## CN1CCN(C(=O)c2c(-c3ccccc3)c3cc([N+](=O)[O-])ccc3n2C)CC1 [KML110, (1-Methyl-5-nitro-3-phenyl-1H-indol-2-yl)(4-methylpiperazin-1-yl)methanone]
[1]; competitor 25 μM
  SILAC ratio H2-L: 1.7
[2]; competitor 25 μM
  SILAC ratio, Ctsd: 1.4
[3]; competitor 25 μM
  SILAC ratio Abcd3: 1.2
[4]; competitor 25 μM
  SILAC ratio Mpv17l2: 1.5
[9]; competitor 25 μM
  SILAC ratio, Tmem160: 1.3
[5]; competitor 25 μM
  SILAC ratio, Dolpp1: 1.6
[6]; competitor 25 μM
  SILAC ratio Dctpp1: 1.6
[7]; competitor 25 μM
  SILAC ratio Slc25a10: 1.2

## CN1CCN(C(=O)c2[nH]c3ccc([N+](=O)[O-])cc3c2-c2ccccc2)CC1 [MJN228, (4-Methylpiperazin-1-yl)(5-nitro-3-phenyl-1H-indol-2-yl)methanone]
[1]; competitor 10 μM
  SILAC ratio H2-L: 1.0
[1]; competitor 25 μM
  SILAC ratio H2-L: 1.1
[1]; competitor 50 μM
  SILAC ratio H2-L: 1.1
[1]; competitor 100 μM
  SILAC ratio H2-L: 1.0
[2]; competitor 10 μM
  SILAC ratio, Ctsd: 1.2
[2]; competitor 25 μM
  SILAC ratio, Ctsd: 1.2
[2]; competitor 50 μM
  SILAC ratio, Ctsd: 1.2
[2]; competitor 100 μM
  SILAC ratio, Ctsd: 1.1
[3]; competitor 10 μM
  SILAC ratio Abcd3: 1.2
[3]; competitor 25 μM
  SILAC ratio Abcd3: 1.5
[3]; competitor 50 μM
  SILAC ratio Abcd3: 1.3
[3]; competitor 100 μM
  SILAC ratio Abcd3: 1.2
[8]; competitor 10 μM
  SILAC ratio, Soat1: 1.2
[8]; competitor 25 μM
  SILAC ratio, Soat1: 2.6
[4]; competitor 10 μM
  SILAC ratio Mpv17l2: 1.1
[4]; competitor 25 μM
  SILAC ratio Mpv17l2: 1.2
[4]; competitor 50 μM
  SILAC ratio Mpv17l2: 1.0
[4]; competitor 100 μM
  SILAC ratio Mpv17l2: 3.6
[9]; competitor 10 μM
  SILAC ratio, Tmem160: 1.2
[9]; competitor 25 μM
  SILAC ratio, Tmem160: 1.5
[9]; competitor 100 μM
  SILAC ratio, Tmem160: 3.5
[5]; competitor 10 μM
  SILAC ratio, Dolpp1: 1.2
[5]; competitor 25 μM
  SILAC ratio, Dolpp1: 1.6
[5]; competitor 50 μM
  SILAC ratio, Dolpp1: 1.9
[5]; competitor 100 μM
  SILAC ratio, Dolpp1: 3.3
[6]; competitor 25 μM
  SILAC ratio Dctpp1: 1.2
[6]; competitor 50 μM
  SILAC ratio Dctpp1: 1.0
[6]; competitor 100 μM
  SILAC ratio Dctpp1: 1.0
[7]; competitor 10 μM
  SILAC ratio Slc25a10: 1.2
[7]; competitor 25 μM
  SILAC ratio Slc25a10: 1.2
[7]; competitor 50 μM
  SILAC ratio Slc25a10: 1.3
[7]; competitor 100 μM
  SILAC ratio Slc25a10: 1.0

## C=CCN(C)CCCCCCOc1ccc(C(=O)c2ccc(Br)cc2)c(F)c1 [Ro 48-8071, reference compound]
[1]; competitor 25 μM
  SILAC ratio H2-L: 0.8
[2]; competitor 25 μM
  SILAC ratio, Ctsd: 0.5
[3]; competitor 25 μM
  SILAC ratio Abcd3: 0.9
[8]; competitor 25 μM
  SILAC ratio, Soat1: 1.8
[4]; competitor 25 μM
  SILAC ratio Mpv17l2: 1.8
[9]; competitor 25 μM
  SILAC ratio, Tmem160: 1.2
[5]; competitor 25 μM
  SILAC ratio, Dolpp1: 1.3
[6]; competitor 25 μM
  SILAC ratio Dctpp1: 0.8
[7]; competitor 25 μM
  SILAC ratio Slc25a10: 0.9

— US10168342B2, “Lipid probes and uses thereof” (THE SCRIPPS RESEARCH INSTITUTE, priority 2015, dated 2019)
